Source: patent publication US11319344B2, “Non-membrane disruptive P53 activating stapled peptides” (AGENCY FOR SCIENCE, TECHNOLOGY AND RESEARCH, priority 2015, dated 2022)
Like-named read-outs stand apart in the source and are kept apart here.

What was measured:
[1] = test system: p53 transcriptional activity in T22 cells; test: T22 p53 β-galactosidase based reporter assay; format: cell-based, murine; details: for IC50: T22 p53 reporter assay, 18 h
Method: The YS-01/04 peptides were screened in a murine T22-derived p53 reporter assay, either with or without fetal calf serum, to assess their ability to induce p53 transcriptional activity in intact cells (Table 1 and FIG. 3).
T22 cells, which were stably transfected with a p53 responsive β-galactosidase reporter, were seeded into 96-well plate at a cell density of 8000 cells per well. Cells were also maintained in Dulbecco's Minimal Eagle Medium (DMEM) with 10% fetal bovine serum (FBS) and penicillin/streptomycin. […] Measurements were carried out using a Safire II multiplate reader. Experiments were carried out independently twice.

[2] = test system: p53 and Mdm2 protein levels in T22 cells; test: T22 western blot analysis of p53 and Mdm2 protein levels; format: cell-based, Murine; details: 25 μM and 50 μM, 18 h, with or without fetal calf serum
From the text: The YS-01/04 peptides were screened in a murine T22-derived p53 reporter assay, either with or without fetal calf serum, to assess their ability to induce p53 transcriptional activity in intact cells (Table 1 and FIG. 3). […] Considering the similar affinities that these peptides have for Mdm2, the difference in their IC50 values must reflect a change in their ability to enter the cell. This difference is observed for both sets of peptides (YS-01 and YS-02, YS-03 and YS-04, FIG. 3), which implies that the hydroxyl group of the C-terminal Y30 is responsible for the reduced efficiency of intracellular uptake. p53 and Mdm2 protein levels were then directly probed using western blot analysis. T22 cells were treated with 25 μM and 50 μM of YS-03 either with or without the presence of fetal calf serum (FIG. 4).
T22 Murine cells were seeded into 12 well plates at a cell density of 150000 cells per well and incubated overnight. Cells were also maintained in DMEM media with 10% fetal bovine serum (FBS) and penicillin/streptomycin. Cells were treated with various compounds/vehicle controls at the time points and concentrations indicated either in DMEM media with or without 10% FBS. Cells were rinsed with PBS and then harvested in 50 μl of 1×NuPAGE LDS sample buffer (NP0008). […] Protein concentrations were measured by BCA assay. […]

[3] = Circular dichroism spectroscopy (helicity in solution); format: physicochemical; details: peptide unbound in solution
[4] = biological target: N-terminal domain of Mdm2 (1-125) (Homo sapiens, UniProt Q00987); test: Competitive fluorescence anisotropy titration (apparent Kd); details: ratio to YS-01/YS-02 Kd
Method: In this assay, a N-terminally FAM labelled peptide of the sequence [sequence]
The cells expressing the Mdm2 GST fusion construct were grown in LB medium at 37° C. to an OD600 of ˜0.6 and induction was carried out with 1 mM isopropyl β-D-1-thiogalactopyranoside (IPTG) at room temperature. Cells were harvested by centrifugation and the cell pellets were resuspended in 50 mM Tris pH 8.0, 10% sucrose and then sonicated. The sonicated sample was centrifuged for 60 minutes at 17,000 g at 4° C. […] The column was then further washed by 6 volumes of wash buffer. Mdm2 were then purified from the column by cleavage with PreScission protease. 10 units of PreScission protease, in one column volume of PBS with 1 mM DTT buffer, were injected onto the column. The cleavage reaction was allowed to proceed overnight at 4° C. The cleaved protein was then eluted of the column with wash buffer. Protein fractions were analysed with SDS-PAGE and concentrated using a Centricon (3.5 kDa molecular weight cut-off (MWCO)) concentrator. The Mdm2 protein sample was then dialyzed into a buffer solution containing 20 mM Bis-Tris, pH 6.5, 0.05M NaCl with 1 mM DTT and loaded onto a monoS column pre-equilibrated in buffer A (20 mM Bis-Tris, pH 6.5, 1 mM DTT). The column was then washed in 6 column volumes of buffer A and bound protein was eluted with a linear gradient of 1M NaCl over 25 column volumes. Protein fractions were analysed with sodium dodecyl sulfate-polyacrylamide gel electrophoresis (SDS-PAGE) and concentrated using a Centricon (3.5 kDa molecular weight cut-off (MWCO)) concentrator.
Apparent dissociation constant (Kd) values were determined for a variety of molecules via competitive fluorescence anisotropy experiments. […] The competing molecules were then titrated against the complex of the FAM labelled peptide and protein. Apparent dissociation constant (Kd) values were determined by fitting the experimental data to the equations shown below:
[L]st and [L]t denote labelled ligand and total unlabelled ligand input concentrations, respectively. Kd2 is the dissociation constant of the interaction between the unlabelled ligand and the protein. In all competitive types of experiments, it is assumed that [P]t>[L]st, otherwise considerable amounts of free labelled ligand would always be present and would interfere with measurements. […] The FAM-labelled peptide was dissolved in dimethyl sulfoxide (DMSO) at 1 mM and diluted into experimental buffer. Readings were carried out with a Envision Multilabel Reader. […] All titrations were carried out in triplicate. Curve-fitting was carried out using Prism 4.0 (GraphPad). […]

T22 cells = test: Lactate dehydrogenase release assay, T22 cells; format: cell-based; details: 2 h, serum free
Method: (§1) The stapled YS-01/04 peptides were also screened for their ability to perturb the cell membrane wall of T22 and ARN8 cells and release cytosolic lactate dehydrogenase (LDH). An effect that is regarded as undesirable as this may indicate that the peptide is non-specifically toxic to different cell types. A short 2 hour time treatment period is used for this assay as it is assumed that perforation of the cell membrane occurs […] for cell programmed death. […] The lactate dehydrogenase leakage measured was much greater in ARN8 cells than T22 cells, showing that different cells vary in their sensitivities to the membrane disruptive properties of YS-03. […] This implies that p53 activation, which is also supported by the data for YS-04, does occur in the absence of membrane disruption and that the biological activity observed for is not a direct consequence of cellular toxicity.
(§2) T22 cells or ARN8 cells, both of which were stably transfected with a p53 responsive β-galactosidase reporter, were seeded into a 96-well plate at a cell density of 5000 cells per well. Cells were also maintained in Dulbecco's Minimal Eagle Medium (DMEM) with 10% fetal bovine serum (FBS) and penicillin/streptomycin. The cells were incubated for 24 hours and then treated with compounds/peptide for 2 hours in DMEM with or without 10% FBS. Cytosolic lactate dehydrogenase release was detected using the non-radioactive cytotoxicity Assay kit (Promega) as per manufacturer's instructions. Measurements were carried out using an Envision multiplate reader.

ARN8 cells = test: Lactate dehydrogenase release assay, ARN8 cells; format: cell-based; details: 2 h, serum free
Method: as §1, §2

[5] = test system: p53 transcriptional activity in ARN8 cells; test: ARN8 β-galactosidase based p53 reporter assay; format: cell-based, Human; details: serum free, 18 h
Method: ARN8 cells contain the same β-galactosidase gene under the control of a p53 promoter that is stably transfected into T22 cells. […] The YS-07 and YS-09 titrations were again repeated and the lactate dehydrogenase leakage from ARN8 cells measured instead (FIGS. 8c and 8d).
ARN8 cells, which were stably transfected with a p53 responsive β-galactosidase reporter, were seeded into 96-well plate at a cell density of 8000 cells per well. Cells were also maintained in Dulbecco's Minimal Eagle Medium (DMEM) with 10% fetal bovine serum (FBS) and penicillin/streptomycin. […] Measurements were carried out using a Safire II multiplate reader. Experiments were carried out independently twice.

[6] = absence of serum, read-out: T22 IC50 (0% μM)
[7] = presence of 10% fetal calf serum, read-out: T22 Ic50 (10% μM)

Sequence of N-terminal domain of Mdm2 (1-125) (Q00987 1-125): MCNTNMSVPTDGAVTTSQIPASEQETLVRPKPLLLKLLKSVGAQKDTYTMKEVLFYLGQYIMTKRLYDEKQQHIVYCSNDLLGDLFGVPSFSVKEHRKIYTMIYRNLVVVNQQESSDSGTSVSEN

Row | SMILES | IC50 [1, 6] [µM] | IC50 [1, 7] [µM] | ability to induce p53 activity in T22 reporter assay ([1]; with and without serum) | p53 and Mdm2 protein levels (western blot) [2] | helicity in solution (CD spectra) [3] | Kd weaker than the i,i+4 analogue peptides (YS-01 and YS-02) [4] | cytosolic lactate dehydrogenase (LDH) release (T22 cells) | cytosolic lactate dehydrogenase (LDH) release (ARN8 cells) | p53 activation (β-galactosidase activity) in ARN8 cells [5]
1 | CC(=O)N[C@H](C(=O)N[C@@H](CO)C(=O)N[C@@H](Cc1ccccc1)C(=O)NC1(C)CCCCCCC=CCCCC(C)(C(=O)N[C@@H](CCC(=O)O)C(=O)N[C@@H](CC(N)=O)C(=O)N[C@@H](Cc2ccccc2)C(N)=O)NC(=O)[C@H](CC(C)C)NC(=O)[C@H](CC(C)C)NC(=O)[C@H](C)NC(=O)[C@H](Cc2c[nH]c3ccccc23)NC(=O)[C@H](Cc2ccc(O)cc2)NC(=O)[C@H](CCC(=O)O)NC1=O)[C@@H](C)O (some centres unmarked) [YS-03, Ac-^17TSFX8EYWALLS5ENF^30-NH2] | 4.57 | 54.7 | greater potency in the T22 assay than YS-01 and YS-02 | induction of p53 and Mdm2 protein levels | significantly more helical in character in solution than YS-01 and YS-02 | approximately 2 fold |  |  | 
2 | CC(=O)N[C@H](C(=O)N[C@@H](CO)C(=O)N[C@@H](Cc1ccccc1)C(=O)N[C@]1(C)CCCCCCC=CCCC[C@@](C)(C(N)=O)NC(=O)[C@H](CC(C)C)NC(=O)[C@H](CC(C)C)NC(=O)[C@H](C)NC(=O)[C@H](Cc2c[nH]c3ccccc23)NC(=O)[C@H](Cc2ccc(O)cc2)NC(=O)[C@H](CCC(=O)O)NC1=O)[C@@H](C)O [sMTide-02, Ac-TSFX8EYWALLS5-NH2, reference compound] | 2.75 | 17.9 |  |  |  |  | significant amounts of lactate dehydrogenase leakage | large amounts of lactate dehydrogenase leakage | poorly induces p53 activity
